Measured values from patent publication US20230295212A1 (ROME Therapeutics, Inc., priority 2022, published 2023).

How the values were obtained:
[1] = tested on: phosphorylated TANK-binding kinase 1 (pTBK1); experiment: UVB-induced pTBK1 in HaCaT cells (ELISA); type: cell-based
Method: pTBK1 is an important signaling molecule in regulating inflammatory responses. HaCaT cells were plated in 6-well plates at a density of ˜100 k/well in HaCaT media (DMEM, optimized 1×(Addex Bio)^+1% pen strep (Gibco)^+5% heat inactivated fetal bovine serum (Gibco)). The cells were then cultured at 37° C. overnight. The next day, the cells were treated with the test compounds. Each test compound was diluted and added to media aliquots to provide desired concentrations. To add the test compound+media mixture, an equivalent amount of media from each well was aspirated and then replenished with the media dosed with the test compound. The cells were then cultured for an additional 72 hours with compound treatment prior to UVB exposure.
The media was then aspirated from the wells, with the remaining cells at least 80% confluent in each well. One mL of PBS was then added to each well, and the plate was then placed under a UVB lamp. A UVB sensor was positioned near the plate to register the plate's exposure. The cells were exposed to the UVB light until they reached 0.1 mJ/cm2. […]
A RIPA lysis buffer (#BP-115, Boston BioProducts) was added to a Halt protease and […] inhibitor cocktail (#78440, ThermoFisher), and the mixture was cooled on ice. […] The protein concentration of the cell lysate was measured using Pierce™ Rapid Gold BCA Protein Assay Kit #AF3225 (ThermoFisher). […]

[2] = target: T1, LINE1 reverse transcriptase (Homo sapiens, UniProt O00370); experiment: Stable artificial-intron Cis LINE1 reporter assay (HeLa Tet-On 3G, Firefly luciferase); type: cell-based; details: HeLa L1 artificial-intron reporter cells, doxycycline 500 ng/mL, 72 h, class symbols
T1 construct: expressed in transfected cells; host or cells: HeLa Tet-On 3G (Takara, cat no 631183)
How it was run: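 HeLa Tet-On 3G clone stably carrying a bi-directional doxycycline-inducible artificial-intron LINE1 reporter, plated at 8,000 cells/well onto serially diluted compound. Expression induced with 500 ng/mL doxycycline (final); Firefly luciferase luminescence (Dual-Glo) read 72 h after plating as LINE1 activity.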

[3] = tested on: THP1-Dual KO-TREX1 xenograft tumors; experiment: Altering IFN production in THP1-Dual KO-TREX1 mouse xenografts (Compound 67); type: in vivo; details: CB-17 SCID mice, decitabine 5 mg/kg SC, compound 0.3-100 mg/kg PO once daily 5 days, tumors 4 h post-last dose
Method: Exemplary Compound 67 was tested for its ability to alter IFN levels in THP1-Dual™ KO-TREX1 xenografts in mice. Assay procedures are described below.
CB-17 SCID female mice were inoculated subcutaneously with 10 million THP1-Dual™ KO-TREX1 cells in 200 μl PBS with Matrigel (1:1) and grouped at N=5 per treatment per sampling timepoint when tumor volume reached an average of 340 mm^3. Six groups were co-administered: (1) decitabine (DAC) at 5 mg/kg SC, once daily, for 5 days, and (2) test compound 67 at one of six doses (0.3 mg/kg PO, 1 mg/kg PO, 3 mg/kg PO, 10 mg/kg PO, 30 mg/kg PO, 100 mg/kg PO) once daily, for 5 days. Two additional groups were administered (1) decitabine and test compound vehicle control SC+PO, once daily, for 5 days, and (2) decitabine at 5 mg/kg SC, once daily, for 5 days. […]
Tumors were harvested 4 h post-last dose administered on day 5, grinded in PBS at 50 Hz for 5 min, kept on ice for 30 min while being vortexed every 5 min. […] Equal amounts of proteins were added to 96-well black plates, and luciferase signal was measured using the QUANTI-Luc™ detection medium according to manufacturer's instructions. Luminescence was measured using the EnVision® 2105 Multimode Plate Reader.
Experimental results are depicted in FIG. 9. […] In FIG. 9, IFN signal was measured in tumors harvested from mice 4 hours after the final decitabine and test compound dosing on day 5.

T1 sequence (O00370 whole entry, looked up): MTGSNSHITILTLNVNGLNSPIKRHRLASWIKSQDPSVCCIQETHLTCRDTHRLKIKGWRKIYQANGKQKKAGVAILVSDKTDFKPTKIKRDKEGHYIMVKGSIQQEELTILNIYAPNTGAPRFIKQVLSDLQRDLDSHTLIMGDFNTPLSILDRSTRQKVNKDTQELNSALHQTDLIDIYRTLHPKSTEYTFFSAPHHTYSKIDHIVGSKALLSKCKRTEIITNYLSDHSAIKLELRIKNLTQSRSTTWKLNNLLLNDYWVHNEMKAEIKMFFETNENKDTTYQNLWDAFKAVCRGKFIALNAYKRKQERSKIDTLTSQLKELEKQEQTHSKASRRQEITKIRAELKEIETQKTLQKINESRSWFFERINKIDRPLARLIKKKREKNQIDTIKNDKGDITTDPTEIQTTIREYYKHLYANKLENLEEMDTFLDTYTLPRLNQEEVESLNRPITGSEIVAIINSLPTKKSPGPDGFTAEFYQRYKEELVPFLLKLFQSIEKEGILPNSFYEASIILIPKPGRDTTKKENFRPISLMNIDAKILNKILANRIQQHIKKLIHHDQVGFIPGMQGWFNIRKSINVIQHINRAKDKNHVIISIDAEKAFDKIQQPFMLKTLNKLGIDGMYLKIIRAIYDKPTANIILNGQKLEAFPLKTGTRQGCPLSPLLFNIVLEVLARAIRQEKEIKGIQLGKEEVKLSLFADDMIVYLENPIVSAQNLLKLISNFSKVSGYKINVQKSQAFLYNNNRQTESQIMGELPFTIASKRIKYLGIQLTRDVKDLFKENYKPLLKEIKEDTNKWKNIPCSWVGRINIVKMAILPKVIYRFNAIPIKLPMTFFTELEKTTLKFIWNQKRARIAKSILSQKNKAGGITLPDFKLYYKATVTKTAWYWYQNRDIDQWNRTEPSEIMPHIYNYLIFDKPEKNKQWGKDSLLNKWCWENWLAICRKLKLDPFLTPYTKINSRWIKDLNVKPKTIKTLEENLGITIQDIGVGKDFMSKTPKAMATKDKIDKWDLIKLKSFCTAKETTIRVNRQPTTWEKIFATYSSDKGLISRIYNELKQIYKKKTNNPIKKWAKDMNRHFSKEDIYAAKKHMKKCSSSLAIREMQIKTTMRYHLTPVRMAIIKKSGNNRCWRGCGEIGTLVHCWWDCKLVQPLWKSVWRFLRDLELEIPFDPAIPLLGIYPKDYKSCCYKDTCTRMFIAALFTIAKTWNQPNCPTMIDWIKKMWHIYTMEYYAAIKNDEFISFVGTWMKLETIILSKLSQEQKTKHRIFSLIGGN

SMILES	cytotoxicity, concentration [1]	IC50 [2]	inhibition of DAC-induced IFN signal in THP1 tumors [3]
Nc1nc(=O)n([C@H]2C[C@H](O)[C@](CO)(CCl)O2)cc1F [Compound 14, 4-amino-1-((2R,4S,5R)-5-(chloromethyl)-4-hydroxy-5-(hydroxymethyl)tetrahydrofuran-2-yl)-5-fluoropyrimidin-2(1H)-one]	≥ 30 µM	≤ 50 nM	–
Nc1nc(=O)n([C@@H]2O[C@@](CO)(CCl)[C@@H](O)[C@@H]2F)cc1F [Compound 67, 4-amino-1-[(2R,3S,4R,5R)-5-(chloromethyl)-3-fluoro-4-hydroxy-5-(hydroxymethyl)oxolan-2-yl]-5-fluoropyrimidin-2-one]	–	≤ 50 nM	dose-response inhibition of DAC-induced IFN signal
